Reference: paper PMC8307317, “Point-Substitution of Phenylalanine Residues of 26RFa Neuropeptide: A Structure-Activity Relationship Study” (Molecules, 2021)
Non-standard residues stand in square brackets, D forms with d. Residues, ends and D or L forms follow the SMILES beside them. No end group written: not given here. *: point of attachment. Phe(4-NO2) = N[C@@H](Cc1ccc([N+](=O)[O-])cc1)C(=O)O; X7 = O=C(C(c1ccc(C(F)(F)F)cc1)N1CCNCC1)*; 2Nal = N[C@@H](Cc1ccc2ccccc2c1)C(=O)O; X4 = COc1ccc(C(C(=O)*)N2CCNCC2)cc1OC; X5 = COc1ccc(C(C(=O)*)N2CCNCC2)cc1; X3 = O=C(C(c1cccc(F)c1)N1CCNCC1)*; NMeF = CN[C@@H](Cc1ccccc1)C(=O)O; Tic = O=C(O)[C@@H]1Cc2ccccc2CN1; dTic = O=C(O)[C@H]1Cc2ccccc2CN1; 2Thi = N[C@@H](Cc1cccs1)C(=O)O; X1 = O=C(C(c1cccnc1)N1CCNCC1)*; Nphe = O=C(O)CNCc1ccccc1

target: T1, human QRFPR (hQRFPR) (Homo sapiens, UniProt Q96P65); test: Calcium mobilization assay, agonist mode ([Ca2+]i in Gα16-hQRFPR-transfected CHO cells); type: cell-based; conditions: [Ca2+]i mobilization in Gα16-hQRFPR-transfected CHO cells; mean of at least three independent experiments performed in triplicate; read-out: EC50
T1 construct: expressed in transfected cells; host or cells: CHO cells, stably transfected with hQRFPR (G418 selection) and Gα16 (hygromycin B selection)
T1 sequence (Q96P65 1-431): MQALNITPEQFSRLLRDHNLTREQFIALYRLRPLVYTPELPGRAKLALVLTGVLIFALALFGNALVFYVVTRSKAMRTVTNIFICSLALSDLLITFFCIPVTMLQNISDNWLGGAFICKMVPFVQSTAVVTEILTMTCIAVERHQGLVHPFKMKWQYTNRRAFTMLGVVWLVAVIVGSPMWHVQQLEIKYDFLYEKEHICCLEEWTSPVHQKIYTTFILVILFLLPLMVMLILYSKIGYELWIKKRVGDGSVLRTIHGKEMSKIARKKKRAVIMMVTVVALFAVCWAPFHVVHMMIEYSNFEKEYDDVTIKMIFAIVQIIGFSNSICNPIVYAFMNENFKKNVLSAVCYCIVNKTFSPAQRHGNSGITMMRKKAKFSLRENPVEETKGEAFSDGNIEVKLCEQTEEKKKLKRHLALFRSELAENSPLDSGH
Method: Stably transfected hQRFPR CHO cells were obtained as previously described. The cells were maintained in F-12 nutrient mixture (Ham-F12) medium supplemented with 10% fetal bovine serum, 2 mM glutamine, and penicillin-streptomycin. Expression of Gα16 cells was maintained using selection antibiotic hygromycin B (200 µg/mL) and that of hQRFPR using geneticin G418 (500 µg/mL) (Life Technologies, Villebon-Sur-Yvette, France) in a humidified 5% CO2 atmosphere at 37 °C.
Changes in intracellular Ca^2+ concentrations induced by 26RFa(20–26) analogs in CHO-Gα16-hQRFPR-transfected cells were measured on a benchtop scanning fluorometer Flexstation III (Molecular Devices, Sunnyvale, CA, USA) as previously described. Briefly, 96-well assay black plates with clear bottoms (Corning international, Avon, France) were seeded at a density of 40,000 cells/well 24 h prior to assay. For profiling agonistic experiments, cells were loaded with 2 µM Fluo-4 acetoxymethyl ester (AM) (Invitrogen) for 1 h in the presence of 0.01% pluronic acid, washed thrice, and incubated for 30 min with standard HBSS containing 2.5 mM probenecid and 5 mM HEPES. Compounds to be tested were added at final concentrations ranging from 10^−11 to 10^−5 M in HBSS, and the fluorescence intensity was measured during 3 min. To evaluate the antagonistic potency of the test compounds, cells were incubated with each compound over 15 min after Fluo-4 AM loading. Then, during fluorescence recording, a pulse of 26RFa was administered at a final concentration of 10^−7 M. After subtraction of the mean fluorescence background, the baseline was normalized to 100%. Fluorescence peak values were determined for each concentration of compound.
Calcium experiments were performed in triplicate, and data, expressed as mean ± SEM of at least three distinct experiments, were analyzed with the Prism 8.0 software (Graphpad Software, San Diego, CA, USA). EC50 and the IC50 values were determined from concentration–response curves using a sigmoidal dose–response fit with variable slope from at least three independent determinations. Differences between 26RFa(20–26) and analog activities were analyzed by the Mann–Whitney test. p values < 0.05 were considered significant.

Compound	EC50 [µM]
N=C(N)NCCC[C@H](NC(=O)[C@H](Cc1ccccc1)NC(=O)[C@H](CO)NC(=O)C(c1cccnc1)N1CCNCC1)C(=O)N[C@@H](Cc1ccccc1)C(N)=O (some centres unmarked) [Compound 63, [Cmpi(3-Pyg)^22]26RFa(22–26)] (X1-SFRF-NH2)	4.99
COc1ccc(C(C(=O)N[C@@H](CO)C(=O)N[C@@H](Cc2ccccc2)C(=O)N[C@@H](CCCNC(=N)N)C(=O)N[C@@H](Cc2ccccc2)C(N)=O)N2CCNCC2)cc1 (some centres unmarked) [Compound 59, [Cmpi(4-MeOPhg)^22]26RFa(22–26)] (X5-SFRF-NH2)	> 10
CN(C(=O)[C@H](CO)NC(=O)[C@H](Cc1ccccc1)NC(=O)CNC(=O)CN)[C@@H](Cc1ccccc1)C(=O)N[C@@H](CCCNC(=N)N)C(=O)N[C@@H](Cc1ccccc1)C(N)=O [Compound 26, [NMePhe^24]26RFa(20–26)] (H-GGFS[NMeF]RF-NH2)	1.36
N=C(N)NCCC[C@H](NC(=O)[C@H]1Cc2ccccc2CN1C(=O)[C@H](CO)NC(=O)[C@H](Cc1ccccc1)NC(=O)CNC(=O)CN)C(=O)N[C@@H](Cc1ccccc1)C(N)=O [Compound 41, [DTic^24]26RFa(20–26)] (H-GGFS[dTic]RF-NH2)	6.2
N=C(N)NCCC[C@H](NC(=O)[C@H](Cc1ccccc1)NC(=O)[C@H](CO)NC(=O)[C@H](Cc1ccccc1)NC(=O)CNC(=O)CN)C(=O)N1Cc2ccccc2C[C@H]1C(N)=O [Compound 30, [Tic^26]26RFa(20–26)] (H-GGFSFR[Tic]-NH2)	7.7
N=C(N)NCCC[C@H](NC(=O)[C@H](Cc1ccc([N+](=O)[O-])cc1)NC(=O)[C@H](CO)NC(=O)[C@H](Cc1ccccc1)NC(=O)CNC(=O)CN)C(=O)N[C@@H](Cc1ccccc1)C(N)=O [Compound 18, [pNO2Phe^24]26RFa(20–26)] (H-GGFS[Phe(4-NO2)]RF-NH2)	> 10
N=C(N)NCCC[C@H](NC(=O)[C@H](Cc1ccccc1)NC(=O)[C@H](CO)NC(=O)[C@H](Cc1ccc2ccccc2c1)NC(=O)CNC(=O)CN)C(=O)N[C@@H](Cc1ccccc1)C(N)=O [Compound 5, [2Nal^22]26RFa(20–26)] (H-GG[2Nal]SFRF-NH2)	1.15
COc1ccc(C(C(=O)N[C@@H](CO)C(=O)N[C@@H](Cc2ccccc2)C(=O)N[C@@H](CCCNC(=N)N)C(=O)N[C@@H](Cc2ccccc2)C(N)=O)N2CCNCC2)cc1OC (some centres unmarked) [Compound 61, [Cmpi(3,4-diMeOPhg)^22]26RFa(22–26)] (X4-SFRF-NH2)	> 10
N=C(N)NCCC[C@H](NC(=O)[C@H](Cc1ccccc1)NC(=O)[C@H](CO)NC(=O)C(c1ccc(C(F)(F)F)cc1)N1CCNCC1)C(=O)N[C@@H](Cc1ccccc1)C(N)=O (some centres unmarked) [Compound 57, [Cmpi(4-TfmPhg)^22]26RFa(22–26)] (X7-SFRF-NH2)	> 10
N=C(N)NCCC[C@H](NC(=O)[C@H](Cc1ccccc1)NC(=O)[C@H](CO)NC(=O)C(c1cccc(F)c1)N1CCNCC1)C(=O)N[C@@H](Cc1ccccc1)C(N)=O (some centres unmarked) [Compound 54, [Cmpi(3-FPhg)^22]26RFa(22–26)] (X3-SFRF-NH2)	2.71
N=C(N)NCCC[C@H](NC(=O)CN(Cc1ccccc1)C(=O)[C@H](CO)NC(=O)[C@H](Cc1ccccc1)NC(=O)CNC(=O)CN)C(=O)N[C@@H](Cc1ccccc1)C(N)=O [Compound 32, [NPhe^24]26RFa(20–26)] (H-GGFS[Nphe]RF-NH2)	> 10
N=C(N)NCCC[C@H](NC(=O)[C@H](Cc1cccs1)NC(=O)[C@H](CO)NC(=O)[C@H](Cc1ccccc1)NC(=O)CNC(=O)CN)C(=O)N[C@@H](Cc1ccccc1)C(N)=O [Compound 3, [Thi^24]26RFa(20–26)] (H-GGFS[2Thi]RF-NH2)	2.53
COc1ccc(C(C(=O)N[C@@H](CO)C(=O)N[C@@H](Cc2ccccc2)C(=O)N[C@@H](CCCNC(=N)N)C(=O)N[C@@H](Cc2ccccc2)C(N)=O)N2CCNCC2)cc1OC (some centres unmarked) [Compound 62, [Cmpi(3,4-diMeOPhg)^22]26RFa(22–26)] (X4-SFRF-NH2)	> 10

same assay, conditions: single prototype curve, triplicate; basal [Ca2+]i mobilization; read-out: EC50 calculated from representative dose–response curves (Figure 3)

Compound	EC50 [µM]
GGFSFRF-NH2 [Compound 1, 26RFa(20–26)]	1.07
